Measurements published in ChEMBL document CHEMBL5247574, “Recent Progress on Bile Acid Receptor Modulators for Treatment of Metabolic Diseases” (J Med Chem, 2016).
One block for each molecule: values may come before it.

How the values were obtained:
[1] = target: T1, Bile acid receptor (Homo sapiens, UniProt Q96RI1); test: Agonist activity at human FXR expressed in Escherichia coli BL21 (DE3) assessed as effect on europium labeled SRC-1 peptide recruitment by HTRF assay
T1 sequence (Q96RI1 whole entry): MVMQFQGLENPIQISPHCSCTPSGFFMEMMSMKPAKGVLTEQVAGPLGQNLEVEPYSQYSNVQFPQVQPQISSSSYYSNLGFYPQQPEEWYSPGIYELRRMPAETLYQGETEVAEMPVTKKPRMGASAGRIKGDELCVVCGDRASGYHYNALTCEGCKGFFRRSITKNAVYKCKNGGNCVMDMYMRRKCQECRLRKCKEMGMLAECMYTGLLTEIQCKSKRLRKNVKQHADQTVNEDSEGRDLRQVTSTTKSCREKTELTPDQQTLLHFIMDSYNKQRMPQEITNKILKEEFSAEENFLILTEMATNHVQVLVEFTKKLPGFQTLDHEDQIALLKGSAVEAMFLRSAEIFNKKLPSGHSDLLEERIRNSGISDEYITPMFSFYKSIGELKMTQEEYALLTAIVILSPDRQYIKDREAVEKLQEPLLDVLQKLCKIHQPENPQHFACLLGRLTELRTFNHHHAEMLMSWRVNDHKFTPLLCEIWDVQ

[2] = Toxicity in DIO mouse assessed as reduction in total cholesterol level at 30 mg/kg per day administered for 4 weeks; assay type: organism-based; design: scale not given: the % may be the effect or the level left; conditions: in vivo, 672 h
[3] = target: T1, Bile acid receptor; test: Agonist activity at GAL4-fused N-terminal GST tagged human FXR LBD expressed in human HEK293 cells by one hybrid reporter assay; assay type: cell-based
[4] = Toxicity in DIO mouse assessed as plasma triglycerides at 30 mg/kg per day administered for 4 weeks; assay type: organism-based; conditions: in vivo, 672 h
[5] = target: T2, G-protein coupled bile acid receptor 1 (Homo sapiens, UniProt Q8TDU6); test: Agonist activity at TGR5 in human T-lymphocyte cells assessed as increase in cAMP production; assay type: cell-based
T2 sequence (Q8TDU6 whole entry): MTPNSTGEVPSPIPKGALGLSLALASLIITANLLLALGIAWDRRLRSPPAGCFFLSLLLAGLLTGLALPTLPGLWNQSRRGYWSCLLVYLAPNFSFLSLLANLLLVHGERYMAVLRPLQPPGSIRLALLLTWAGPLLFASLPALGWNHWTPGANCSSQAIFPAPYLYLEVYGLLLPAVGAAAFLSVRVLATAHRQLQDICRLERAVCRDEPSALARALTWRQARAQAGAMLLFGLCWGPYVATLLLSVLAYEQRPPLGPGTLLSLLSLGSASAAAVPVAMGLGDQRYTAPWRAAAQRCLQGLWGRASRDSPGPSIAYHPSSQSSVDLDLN

[6] = target: T2, G-protein coupled bile acid receptor 1; test: Agonist activity at TGR5 in human HEK293 cells incubated for 30 mins; assay type: cell-based
[7] = In vivo agonist activity at TGR5 in streptozotocin-induced diabetic hamster model assessed as increase in oxygen consumption at 20 mg/kg, po bid administered for 2 weeks by oral glucose tolerance test relative to control; assay type: functional, Cricetulus griseus
[8] = In vivo agonist activity at TGR5 in streptozotocin-induced diabetic hamster model assessed as reduction in glucose excursion at 38 mg/kg, po by oral glucose tolerance test relative to control; assay type: functional, Cricetulus griseus; design: scale not given: the % may be the effect or the level left
[9] = In vivo agonist activity at TGR5 in streptozotocin-induced diabetic hamster model assessed as increase in HDL level at 20 mg/kg, po bid administered for 2 weeks by oral glucose tolerance test relative to control; assay type: functional, Cricetulus griseus
[10] = In vivo agonist activity at TGR5 in streptozotocin-induced diabetic hamster model assessed as decrease in plasma triglyceride at 20 mg/kg, po bid administered for 2 weeks by oral glucose tolerance test relative to control; assay type: functional, Cricetulus griseus; design: scale not given: the % may be the effect or the level left
[11] = In vivo agonist activity at TGR5 in streptozotocin-induced diabetic hamster model assessed as increase in insulin secretion at 20 mg/kg, po bid administered for 2 weeks by oral glucose tolerance test relative to control; assay type: functional, Cricetulus griseus
[12] = In vivo agonist activity at TGR5 in streptozotocin-induced diabetic hamster model assessed as reduction in body weight at 20 mg/kg, po bid administered for 2 weeks by oral glucose tolerance test relative to control; assay type: functional, Cricetulus griseus; design: scale not given: the % may be the effect or the level left
[13] = target: T3, G-protein coupled bile acid receptor 1 (Homo sapiens) (UniProt Q8TDU6); test: Agonist activity at human TGR5 transfected in human NCI-H716 cells assessed as fold increase in GLP-1 secretion; assay type: cell-based; conditions: filed as agonist
T3 sequence (whole entry): T2 sequence (Q8TDU6 whole entry)

[14] = In vivo agonist activity at TGR5 in streptozotocin-induced diabetic hamster model assessed as decrease in LDL level at 20 mg/kg, po bid administered for 2 weeks by oral glucose tolerance test relative to control; design: scale not given: the % may be the effect or the level left; conditions: Cricetulus griseus
[15] = In vivo agonist activity at TGR5 in streptozotocin-induced diabetic hamster model assessed as decrease in non-HDL level at 20 mg/kg, po bid administered for 2 weeks by oral glucose tolerance test relative to control; design: scale not given: the % may be the effect or the level left; conditions: Cricetulus griseus
[16] = In vivo agonist activity at TGR5 in streptozotocin-induced diabetic hamster model assessed as increase in HDL/LDL ratio at 20 mg/kg, po bid administered for 2 weeks by oral glucose tolerance test relative to control
[17] = target: T1, Bile acid receptor; test: Antagonist activity at FXR (unknown origin) by HTFR assay
[18] = target: T1, Bile acid receptor; test: Antagonist activity at FXR in human HepG2 cells; assay type: cell-based
[19] = target: T1, Bile acid receptor; test: Agonist activity at FXR (unknown origin) by FRET assay
[20] = Permeability of compound by PAMPA assay; assay type: ADME

Structure (SMILES): CC(C)c1onc(-c2c(Cl)cccc2Cl)c1COc1ccc2c(ccn2Cc2ccc(-c3nnn[nH]3)cc2)c1
EC50 [1]: < 100 nM

Structure (SMILES): COc1ccc(Cc2nnc(SCc3c(F)cccc3Cl)n2-c2ccc(F)cc2F)cc1OC
EC50 [6]: < 100 nM

Structure (SMILES): O=C(O)c1ccccc1-c1ccc(Cn2ccc(OCc3c(-c4ccccc4Cl)noc3-c3cccs3)n2)cc1
IC50 [17]: 10000 nM | IC50 [18]: 12200 nM

Structure (SMILES): CC(C)n1nc(C(=O)O)cc1[C@H]1C[C@](O)(c2ccc(OCc3c(-c4c(Cl)cccc4Cl)noc3C3CC3)cc2Cl)C1
EC50 [19]: < 25 nM | EC50 [3]: 10 nM | permeability [20]: 46.1%

Continued, in another order:

EC50 [3]: 10 nM
Structure (SMILES): O=C(O)c1ccc(C2CC2c2ccc(OCc3c(-c4c(Cl)cccc4Cl)noc3C3CC3)cc2Cl)cc1 (stereo unspecified)
Activity [2]: 70% | Activity [4]: 50%

EC50 [5]: 7 nM
Structure (SMILES): CS(=O)(=O)c1ccc(CC2CCC(c3c(C(=O)N4CCC(c5ccc(F)cc5)C4)cnn3-c3ccc(F)cc3)CC2)cc1 (stereo unspecified)

fold change (FC) [13]: 3.7
Structure (SMILES): CN(C(=O)c1c(-c2ccc(F)cc2)nc2ncccn12)c1ccc(Cl)cc1
Activity [7]: 7.9% | Activity [8]: 39% | Activity [9]: 7% | Activity [10]: 43% | Activity [11]: 80% | Activity [12]: 5.2% | Activity [14]: 14% | Activity [15]: 24% | Activity [16]: 24%
